The values below come from PMC5612753, “New lipases by mining of Pleurotus ostreatus genome” (PLoS ONE, 2017).

Molecules are shown by their SMILES.

Assay [1] has as its system T1, PleoLip369.
T1 construct: signal peptide removed, codon-optimised synthetic gene behind alpha-factor signal, secreted from Pichia pastoris BG-10, purified by CM Sepharose; catalytic Ser266, Asp394, His512, pentapeptide GESAG
The assay is described as follows: spectrophotometric p-nitrophenol release, […] nm; non-linear regression. It counts as biochemical, Pleurotus ostreatus. As to conditions: pH 8; substrate 0.001-1 mM.

Assay [2] deals with T2, PleoLip241.
T2 construct: signal peptide removed, codon-optimised synthetic gene behind alpha-factor signal, secreted from Pichia pastoris BG-10, purified by CM Sepharose; catalytic Ser273, Asp403, His520, pentapeptide GQSAG
The description is as above. In kind it is biochemical, Pleurotus ostreatus. The conditions noted are these: pH 8; substrate 0.001-1 mM.

Take `CCCCCCCC(=O)Oc1ccc([N+](=O)[O-])cc1` [pNP-C8, p-nitrophenyl octanoate]: the Km in assay [1] came to 510 ± 60 µM.
Consider `CCCCCCCCCC(=O)Oc1ccc([N+](=O)[O-])cc1` [pNP-C10, p-nitrophenyl decanoate], for which the Km in assay [2] turned out to be 30 ± 5 µM; in assay [1], 130 ± 20 µM.
In the same order, the values of `CCCCCCCCCCCC(=O)Oc1ccc([N+](=O)[O-])cc1` [pNP-C12, p-nitrophenyl dodecanoate] are 150 ± 6 µM and 652 ± 75 µM.
With `CCCCCCCCCCCCCC(=O)Oc1ccc([N+](=O)[O-])cc1` [pNP-C14, p-nitrophenyl myristate], the Km in assay [2] stood at 85 ± 4 µM.
Take `CCCCCCCCCCCCCCCC(=O)Oc1ccc([N+](=O)[O-])cc1` [pNP-C16, p-nitrophenyl palmitate]: in assay [2], the Km was determined as 350 ± 38 µM.
